Series [1] has as its system Normal human skin fibroblast cells. Nature of the series: Collagen production by human skin fibroblast, Sircol collagen assay. It is filed as cell-based. The protocol: Normal human skin fibroblast cells were adjusted with 10% D-MEM (manufactured by Invitrogen) to a density of 2.5×10^4 cells per well, and preincubated on the 96-well plate for 24 hours. After removal of the medium, phosphorylated saccharide calcium salt adjusted to a concentration of 1% with 4% D-MEM was added to each well as a test sample, and then the mixture was cultured at 37° C. under 5% CO2 for 72 hours. After the completion of the culture, the amount of collagen in the medium was measured. The amount of collagen was measured by using a Sircol collagen assay Kit (manufactured by Biocolor Ltd.).
(§1) Normal human skin fibroblast cells were adjusted with 10% D-MEM (manufactured by Invitrogen) to a density of 2.5×10^4 cells per well, and preincubated on the 96-well plate for 24 hours. After removal of the medium, phosphorylated saccharide calcium salt adjusted to a concentration of 1% with 4% D-MEM and 0.0044% ascorbic acid as a test sample, or 0.0044% ascorbic acid as a control was added to each well, and then the mixture was cultured at 37° C. under 5% CO2 for 72 hours. After the completion of the culture, the amounts of collagen in the medium and on the cell surface were measured. The amount of collagen was measured by using a Sircol collagen assay Kit (manufactured by Biocolor Ltd.). The collagen on cell surface was measured after pepsin treatment.
Normal human skin fibroblast cells were adjusted with 10% D-MEM (manufactured by Invitrogen) to a density of 2.5×10^4 cells per well, and preincubated on the 96-well plate for 24 hours. After removal of the medium, phosphorylated saccharide potassium salt adjusted to a concentration of 1% with 4% D-MEM was added to each well as a test sample, and then cultured at 37° C. under 5% CO2 for 72 hours. After the completion of the culture, the amount of collagen in the medium was measured. The amount of collagen was measured by using a Sircol collagen assay Kit (manufactured by Biocolor Ltd.).
as §1, with “phosphorylated saccharide potassium salt adjusted” for “phosphorylated saccharide calcium salt adjusted”, “acid as control was” for “acid as a control was”, “medium and the cell” for “medium and on the cell”

The conditions of series [2]: buffer; for Water retention ratio: Remaining ratio after 1 minute (%): 1 min.
Protocol: 0.1% to 1% Aqueous phosphorylated saccharide mineral salt solutions were prepared. Ten μl/paper of the aqueous phosphorylated saccharide mineral salt solution was impregnated into a paper disc (8 mm) [manufactured by Advantech], and the water-retention effect was evaluated by measuring the remaining water over time for 10 minutes under a constant condition. For comparison, 0.1% solution of hyaluronic acid or 1% solution of glycerol, which are known as water retention component, were used. Distilled water was used as a control.
The mark [3] stands for this setting: inorganic chloride as comparison, concentration not given.

Values joined by “and” are separate entries in the source; they are usually repeats but may differ in a detail not shown here. Equal values may be shown once.

As to `O=C1O[C@H]([C@@H](O)CO)C(O)=C1O` [ascorbic acid], the “amount of collagen in the medium” value in series [1] (0.0044% ascorbic acid alone, 72 hours) is 55.1 µg/mL and 44.1 µg/mL and 50.1 µg/mL and 52.1 µg/mL. The “amount of collagen on the cell surface” value in series [1] (0.0044% ascorbic acid alone, 72 hours, after pepsin treatment) is 23.1 µg/mL and 23.0 µg/mL and 21.3 µg/mL. The “increase of amount of collagen in the medium compared to control well” value in series [1] (0.0044% ascorbic acid in 4% FBS-DMEM, 72 hours) was 1.4 µg.
In the case of `[Ca+2].[Cl-].[Cl-]` [calcium chloride], the “induction of collagen production (in words)” value in series [1] (setting [3]) is reported as “no induction of collagen production was observed”.
Regarding `OCC(O)CO` [glycerol], in series [2], the “Water retention ratio: Remaining ratio after 1 minute (%)” value was 98.84% and the “Water retention ratio: Remaining ratio after 10 minutes (%)” value is recorded as 88.23%.
For `[Cl-].[Cl-].[Mg+2]` [magnesium chloride], in series [1] (setting [3]), the “induction of collagen production (in words)” value is on record as “no significant collagen production induction was observed”.
For the compound `[Cl-].[K+]` [potassium chloride], the “induction of the collagen production (amount of collagen)” value in series [1] (inorganic chloride as comparison, concentration not given, 72 hours) was found to be 2.2 µg/mL.
With hyaluronic acid, in series [2], the “Water retention ratio: Remaining ratio after 1 minute (%)” value was 98.84% and the “Water retention ratio: Remaining ratio after 10 minutes (%)” value amounted to 83.73%.

The values are drawn from patent US20140023602A1, “EXTERNAL PREPARATION FOR SKIN CONTAINING A PHOSPHORYLATED SACCHARIDE” (EZAKI GLICO CO., LTD., priority 2005, published 2014).
